Our source for the IC50 values is US20250025443A1, “COMPOUNDS AND METHODS FOR TREATING CORONA VIRUSES” (CLEAR CREEK BIO, INC., priority 2021, published 2025).

What is called IC50 is the concentration needed to halve the response being measured.

The target in one assay is SARS-CoV-2 Papain-Like Protease (PLpro) (Severe acute respiratory syndrome coronavirus 2 (2019-nCoV) (SARS-CoV-2), UniProt P0DTD1). Briefly: biochemical. Particulars: PLpro IC50, SARS-CoV-2 PLpro enzymatic fluorescence assay.
The compound `Cc1cc2c(CCN)c[nH]c2cc1C(=O)NC1(c2cccc3ccccc23)CC1` [Compound 292, 3-(2-Aminoethyl)-5-methyl-N-(1-(naphthalen-1-yl)cyclopropyl)-1H-indole-6-carboxamide] showed an IC50 of 100 to 1000 nM.

The same assay, now with this note: PLpro enzymatic fluorescence assay; class symbols; read-out: PLpro IC50.
With `COc1ccccc1C1(NC(=O)c2cc(OCCN(C)C)ccc2C)CC1` [Compound 277, 5-(2-(Dimethylamino)ethoxy)-N-(1-(2-methoxyphenyl)cyclopropyl)-2-methylbenzamide], the IC50 is above 5000 nM.

On to `COc1cccc(C2(NC(=O)c3cc(OCCN(C)C)ccc3C)CC2)c1` [Compound 278, 5-(2-(Dimethylamino)ethoxy)-N-(1-(3-methoxyphenyl)cyclopropyl)-2-methylbenzamide], for which the IC50 is above 5000 nM.

Consider `Cc1ccc(OCCN(C)C)cc1C(=O)NC1(c2cccc(O)c2)CC1` [Compound 306, 5-(2-(Dimethylamino)ethoxy)-N-(1-(3-hydroxyphenyl)cyclopropyl)-2-methylbenzamide], for which the IC50 is above 5000 nM.

Staying with this assay, now noted: SARS-CoV-2 PLpro enzymatic fluorescence assay; read-out: PLpro IC50.
Turning to `CN(C)CCOc1ccc(Br)c(C(=O)NC2(c3cccc4ccccc34)CC2)c1` [Compound 269, 2-Bromo-5-(2-(dimethylamino)ethoxy)-N-(1-(naphthalen-1-yl)cyclopropyl)benzamide], the IC50 is 100 to 1000 nM.

In the case of `Cc1ccc(OCCN(C)C)cc1C(=O)NC1(c2cccc(Oc3ccccc3)c2)CC1` [Compound 270, 5-(2-(Dimethylamino)ethoxy)-2-methyl-N-(1-(3-phenoxyphenyl)cyclopropyl)benzamide], the IC50 is above 5000 nM.

Turning to `COc1ccc(C2(NC(=O)c3cc(OCCN(C)C)ccc3C)CC2)cc1` [Compound 271, 5-(2-(Dimethylamino)ethoxy)-N-(1-(4-methoxyphenyl)cyclopropyl)-2-methylbenzamide], the IC50 is above 5000 nM.

On to `Cc1ccc(OCCN(C)C)cc1C(=O)NC1(c2ccccc2F)CC1` [Compound 272, 5-(2-(Dimethylamino)ethoxy)-N-(1-(2-fluorophenyl)cyclopropyl)-2-methylbenzamide], for which the IC50 was above 5000 nM.

On to `Cc1cc2cc(C(C)N)[nH]c2cc1C(=O)NC1(c2cccc3ccccc23)CC1` (stereo not drawn) [Compound 273, 2-(1-Aminoethyl)-5-methyl-N-(1-(naphthalen-1-yl)cyclopropyl)-1H-indole-6-carboxamide], for which the half-maximal inhibitory concentration (IC50) is below 100 nM.

As to `Cc1ccc(OCC2CCN2)cc1C(=O)NC1(c2cccc3ccccc23)CC1` (stereo not drawn) [Compound 274, 5-(Azetidin-2-ylmethoxy)-2-methyl-N-(1-(naphthalen-1-yl)cyclopropyl)benzamide], the IC50 is below 100 nM.

Take `Cc1ncc(OCCN(C)C)cc1C(=O)NC1(c2cccc3ccccc23)CC1` [Compound 275, 5-(2-(Dimethylamino)ethoxy)-2-methyl-N-(1-(naphthalen-1-yl)cyclopropyl)nicotinamide]: the IC50 lay in the range of 1000 to 5000 nM.

Turning to `Cc1ccc(OCCN(C)C)cc1C(=O)NC1(c2cccc(C3CCCC3)c2)CC1` [Compound 276, N-(1-(3-Cyclopentylphenyl)cyclopropyl)-5-(2-(dimethylamino)ethoxy)-2-methylbenzamide], the IC50 is above 5000 nM.

Consider `Cc1ccc(OCCN(C)C)cc1C(=O)NC1(c2ccc(Oc3ccccc3)cc2)CC1` [Compound 279, 5-(2-(Dimethylamino)ethoxy)-2-methyl-N-(1-(4-phenoxyphenyl)cyclopropyl)benzamide], for which the IC50 lay in the range of 1000 to 5000 nM.

As to `Cc1cc2nc(CN)[nH]c2cc1C(=O)NC1(c2cccc3ccccc23)CC1` [Compound 280, 2-(Aminomethyl)-5-methyl-N-(1-(naphthalen-1-yl)cyclopropyl)-1H-benzo[d]imidazole-6-carboxamide], the IC50 lay within 100 to 1000 nM.

Consider `Cc1cc2cc(CN)[nH]c2cc1C(=O)NC(C)(C)c1cccc2ccccc12` [Compound 281], for which the IC50 was above 5000 nM.

As to `Cc1ccc(OCCN(C)C)cc1C(=O)NC1(c2ccccc2C)CC1` [Compound 282, 5-(2-(Dimethylamino)ethoxy)-2-methyl-N-(1-(o-tolyl)cyclopropyl)benzamide], the IC50 lay within 1000 to 5000 nM.

For `Cc1ccc(OCC2CCCN2C)cc1C(=O)NC1(c2cccc3ccccc23)CC1` (stereo not drawn) [Compound 283, 2-Methyl-5-((1-methylpyrrolidin-2-yl)methoxy)-N-(1-(naphthalen-1-yl)cyclopropyl)benzamide], the IC50 was below 100 nM.

Take `Cc1ccc(OCCN2CCC(F)(F)CC2)cc1C(=O)NC1(c2cccc3ccccc23)CC1` [Compound 284, 5-(2-(4,4-Difluoropiperidin-1-yl)ethoxy)-2-methyl-N-(1-(naphthalen-1-yl)cyclopropyl)benzamide]: the IC50 lay within 100 to 1000 nM.

`Cc1ccc(OCC(N)=O)cc1C(=O)NC1(c2cccc3ccccc23)CC1` [Compound 285, 5-(2-Amino-2-oxoethoxy)-2-methyl-N-(1-(naphthalen-1-yl)cyclopropyl)benzamide]: the IC50 was 100 to 1000 nM.

In the case of `Cc1ccc(OCC2COCCN2)cc1C(=O)NC1(c2cccc3ccccc23)CC1` (stereo not drawn) [Compound 286, 2-Methyl-5-(morpholin-3-ylmethoxy)-N-(1-(naphthalen-1-yl)cyclopropyl)benzamide], the IC50 was below 100 nM.

In the case of `Cc1ccc(OCC2CCCCN2C)cc1C(=O)NC1(c2cccc3ccccc23)CC1` (stereo not drawn) [Compound 288, 2-Methyl-5-((1-methylpiperidin-2-yl)methoxy)-N-(1-(naphthalen-1-yl)cyclopropyl)benzamide], the IC50 is 100 to 1000 nM.

For the compound `Cc1ccc(OC2CCCN(C)C2)cc1C(=O)NC1(c2cccc3ccccc23)CC1` (stereo not drawn) [Compound 289, 2-Methyl-5-((1-methylpiperidin-3-yl)oxy)-N-(1-(naphthalen-1-yl)cyclopropyl)benzamide], the concentration for half-maximal inhibition (IC50) lay in the range of 100 to 1000 nM.

On to `Cc1cc2ccn(C3CN(C)C3)c2cc1C(=O)NC1(c2cccc3ccccc23)CC1` [Compound 290, 5-Methyl-1-(1-methylazetidin-3-yl)-N-(1-(naphthalen-1-yl)cyclopropyl)-1H-indole-6-carboxamide], for which the IC50 was below 100 nM.

Take `Cc1ccc(OCCN(C)C)cc1C(=O)NC1(c2cccc(-c3ccccc3)c2)CC1` [Compound 291, N-(1-([1,1′-Biphenyl]-3-yl)cyclopropyl)-5-(2-(dimethylamino)ethoxy)-2-methylbenzamide]: the IC50 was 100 to 1000 nM.

On to `Cc1ccc(OC2CCCCN(C)C2)cc1C(=O)NC1(c2cccc3ccccc23)CC1` (stereo not drawn) [Compound 293, 2-methyl-5-((1-methylazepan-3-yl)oxy)-N-(1-(naphthalen-1-yl)cyclopropyl)benzamide], for which the IC50 lay within 100 to 1000 nM.

Regarding `Cc1ccc(OCCN(C)C)cc1C(=O)NC1(c2ccc(O)cc2)CC1` [Compound 294, 5-(2-(Dimethylamino)ethoxy)-N-(1-(4-hydroxyphenyl)cyclopropyl)-2-methylbenzamide], the IC50 was above 5000 nM.

Consider `Cc1cc2ccn(CC3COC3)c2cc1C(=O)NC1(c2cccc3ccccc23)CC1` [Compound 295, 5-Methyl-N-(1-(naphthalen-1-yl)cyclopropyl)-1-(oxetan-3-ylmethyl)-1H-indole-6-carboxamide], for which the IC50 is 100 to 1000 nM.

`Cc1cc2ccn(C3CCC3)c2cc1C(=O)NC1(c2cccc3ccccc23)CC1` [Compound 296, 1-Cyclobutyl-5-methyl-N-(1-(naphthalen-1-yl)cyclopropyl)-1H-indole-6-carboxamide]: the IC50 fell in the range of 100 to 1000 nM.

`Cc1cc2c(cc1C(=O)NC1(c3cccc4ccccc34)CC1)NCCN2` [Compound 297, 7-Methyl-N-(1-(naphthalen-1-yl)cyclopropyl)-1,2,3,4-tetrahydroquinoxaline-6-carboxamide]: the concentration for half-maximal inhibition (IC50) was 100 to 1000 nM.

`Cc1ccc(OCCN(C)C)cc1C(=O)NC1(c2ccccc2Oc2ccccc2)CC1` [Compound 298, 5-(2-(Dimethylamino)ethoxy)-2-methyl-N-(1-(2-phenoxyphenyl)cyclopropyl)benzamide]: the IC50 is 1000 to 5000 nM.

Regarding `Cc1ccc(OCCN(C)C)cc1C(=O)NC1(c2cccc3cnccc23)CC1` [Compound 299, 5-(2-(Dimethylamino)ethoxy)-N-(1-(isoquinolin-5-yl)cyclopropyl)-2-methylbenzamide], the IC50 was below 100 nM.

Consider `Cc1ccc(OCCN2CC(F)C2)cc1C(=O)NC1(c2cccc3ccccc23)CC1` [Compound 300, 5-(2-(3-Fluoroazetidin-1-yl)ethoxy)-2-methyl-N-(1-(naphthalen-1-yl)cyclopropyl)benzamide], for which the IC50 was below 100 nM.

Take `Cc1ccc(OCCN(C)C)cc1C(=O)NC1(c2cccc3ncccc23)CC1` [Compound 301, 5-(2-(Dimethylamino)ethoxy)-2-methyl-N-(1-(quinolin-5-yl)cyclopropyl)benzamide]: the IC50 was below 100 nM.

On to `Cc1ccc(OCC2COCCN2C)cc1C(=O)NC1(c2cccc3ccccc23)CC1` (stereo not drawn) [Compound 302, 2-Methyl-5-((4-methylmorpholin-3-yl)methoxy)-N-(1-(naphthalen-1-yl)cyclopropyl)benzamide], for which the IC50 was 100 to 1000 nM.

Take `COc1ccc(OCCN(C)C)cc1C(=O)NC1(c2cccc3ccccc23)CC1` [Compound 303, 5-(2-(Dimethylamino)ethoxy)-2-methoxy-N-(1-(naphthalen-1-yl)cyclopropyl)benzamide]: the IC50 was above 5000 nM.

As for `Cc1cc2cnn(C3CNC3)c2cc1C(=O)NC1(c2cccc3ccccc23)CC1` [Compound 304, 1-(Azetidin-3-yl)-5-methyl-N-(1-(naphthalen-1-yl)cyclopropyl)-1H-indazole-6-carboxamide], the IC50 is below 100 nM.

As for `Cc1cc2cn(C3CNC3)nc2cc1C(=O)NC1(c2cccc3ccccc23)CC1` [Compound 305, 2-(Azetidin-3-yl)-5-methyl-N-(1-(naphthalen-1-yl)cyclopropyl)-2H-indazole-6-carboxamide], the IC50 was 100 to 1000 nM.

On to `Cc1ccc(OCCN(C)C)cc1C(=O)NC1(c2ccc(OCc3ccccc3)cc2)CC1` [Compound 307, N-(1-(4-(Benzyloxy)phenyl)cyclopropyl)-5-(2-(dimethylamino)ethoxy)-2-methylbenzamide], for which the IC50 is above 5000 nM.

For `Cc1ccc(OCCN(C)C)cc1C(=O)NC1(c2cccc(OCc3ccccc3)c2)CC1` [Compound 308, N-(1-(3-(Benzyloxy)phenyl)cyclopropyl)-5-(2-(dimethylamino)ethoxy)-2-methylbenzamide], the IC50 is above 5000 nM.
